Source: publication PMC4362760, “JAK2^V617F Drives Mcl-1 Expression and Sensitizes Hematologic Cell Lines to Dual Inhibition of JAK2 and Bcl-xL” (PLoS ONE, 2015)

How the values were obtained:
Abl = Abl (Homo sapiens, UniProt P00519); assay: TR-FRET Kinome Abl; type: binding; details: Abl Invitrogen .025(Subs Conc)
Excerpt: (§1) (XLS) Click here for additional data file.

DDR1 = DDR1 (Homo sapiens, UniProt Q08345); assay: TR-FRET Kinome DDR1; type: binding; details: DDR1 Invitrogen .01(Subs Conc)
DDR1, sequence (Q08345 19-913): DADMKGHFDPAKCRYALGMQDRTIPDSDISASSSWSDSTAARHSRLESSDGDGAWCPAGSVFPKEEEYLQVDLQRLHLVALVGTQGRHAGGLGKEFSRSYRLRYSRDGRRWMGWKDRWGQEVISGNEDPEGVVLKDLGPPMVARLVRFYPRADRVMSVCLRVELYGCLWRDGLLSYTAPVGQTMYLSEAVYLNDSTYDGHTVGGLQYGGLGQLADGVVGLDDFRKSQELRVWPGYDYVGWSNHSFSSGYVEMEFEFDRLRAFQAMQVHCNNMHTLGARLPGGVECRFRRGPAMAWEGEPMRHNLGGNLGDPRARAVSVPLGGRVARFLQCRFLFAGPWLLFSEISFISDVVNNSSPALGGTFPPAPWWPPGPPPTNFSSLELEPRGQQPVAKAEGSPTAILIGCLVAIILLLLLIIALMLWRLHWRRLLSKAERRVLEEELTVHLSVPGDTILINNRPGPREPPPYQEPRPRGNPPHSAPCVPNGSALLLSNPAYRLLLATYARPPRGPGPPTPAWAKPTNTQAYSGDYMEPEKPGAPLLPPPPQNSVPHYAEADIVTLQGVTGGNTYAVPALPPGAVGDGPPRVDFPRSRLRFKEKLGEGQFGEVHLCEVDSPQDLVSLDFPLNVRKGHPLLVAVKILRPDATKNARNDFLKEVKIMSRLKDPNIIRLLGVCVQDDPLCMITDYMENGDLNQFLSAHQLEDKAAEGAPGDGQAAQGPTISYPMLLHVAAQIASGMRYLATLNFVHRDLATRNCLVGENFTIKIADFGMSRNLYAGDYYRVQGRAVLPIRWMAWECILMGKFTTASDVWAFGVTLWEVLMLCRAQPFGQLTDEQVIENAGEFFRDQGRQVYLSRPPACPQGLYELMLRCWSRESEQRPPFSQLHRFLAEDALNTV
Excerpt: as §1

MAP3K10 = MAP3K10 (Homo sapiens, UniProt Q02779); assay: TR-FRET Kinome MAP3K10; type: binding; details: MAP3K10 Invitrogen .005(Subs Conc)
MAP3K10, sequence (Q02779 whole entry): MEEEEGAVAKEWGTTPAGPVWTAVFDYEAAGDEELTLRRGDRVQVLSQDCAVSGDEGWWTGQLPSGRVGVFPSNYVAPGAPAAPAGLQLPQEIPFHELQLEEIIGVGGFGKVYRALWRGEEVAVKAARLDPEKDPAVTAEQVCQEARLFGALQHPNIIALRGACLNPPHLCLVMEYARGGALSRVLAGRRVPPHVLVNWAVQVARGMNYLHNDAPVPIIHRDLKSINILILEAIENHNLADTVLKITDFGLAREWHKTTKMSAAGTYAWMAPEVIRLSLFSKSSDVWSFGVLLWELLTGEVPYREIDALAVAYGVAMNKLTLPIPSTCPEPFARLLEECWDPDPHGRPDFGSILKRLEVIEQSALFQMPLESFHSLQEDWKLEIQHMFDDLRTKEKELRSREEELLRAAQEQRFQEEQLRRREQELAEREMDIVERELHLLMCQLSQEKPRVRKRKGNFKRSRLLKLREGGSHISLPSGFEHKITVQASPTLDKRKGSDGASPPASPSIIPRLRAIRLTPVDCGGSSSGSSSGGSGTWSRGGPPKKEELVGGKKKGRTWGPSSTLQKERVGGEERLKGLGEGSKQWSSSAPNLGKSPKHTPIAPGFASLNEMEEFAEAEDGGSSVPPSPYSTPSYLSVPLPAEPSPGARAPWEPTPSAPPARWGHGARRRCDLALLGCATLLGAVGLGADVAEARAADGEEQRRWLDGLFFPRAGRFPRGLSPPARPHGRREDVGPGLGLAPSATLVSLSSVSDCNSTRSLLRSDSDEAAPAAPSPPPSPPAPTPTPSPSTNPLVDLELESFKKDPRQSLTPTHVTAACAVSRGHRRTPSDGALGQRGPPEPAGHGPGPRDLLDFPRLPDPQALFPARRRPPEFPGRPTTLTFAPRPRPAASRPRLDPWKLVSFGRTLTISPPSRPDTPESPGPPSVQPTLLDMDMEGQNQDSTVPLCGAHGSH
Excerpt: as §1

Pim2 = Pim2 (Homo sapiens, UniProt Q9P1W9); assay: TR-FRET Kinome Pim2; type: binding; details: Pim2 Millipore .025(Subs Conc)
Pim2, sequence (Q9P1W9 whole entry): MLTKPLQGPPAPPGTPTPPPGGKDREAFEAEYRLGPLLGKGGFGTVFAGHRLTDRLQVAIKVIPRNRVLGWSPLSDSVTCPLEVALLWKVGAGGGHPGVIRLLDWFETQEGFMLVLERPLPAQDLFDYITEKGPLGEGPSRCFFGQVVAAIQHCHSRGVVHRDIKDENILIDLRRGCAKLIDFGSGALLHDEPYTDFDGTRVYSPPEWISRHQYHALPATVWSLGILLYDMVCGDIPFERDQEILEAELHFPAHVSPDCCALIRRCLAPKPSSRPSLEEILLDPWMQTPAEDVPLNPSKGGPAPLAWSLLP
Excerpt: as §1

TAOK2 = TAOK2 (Homo sapiens, UniProt Q9UL54); assay: TR-FRET Kinome TAOK2; type: binding; details: TAOK2 Invitrogen .2(Subs Conc)
TAOK2, sequence (Q9UL54 whole entry): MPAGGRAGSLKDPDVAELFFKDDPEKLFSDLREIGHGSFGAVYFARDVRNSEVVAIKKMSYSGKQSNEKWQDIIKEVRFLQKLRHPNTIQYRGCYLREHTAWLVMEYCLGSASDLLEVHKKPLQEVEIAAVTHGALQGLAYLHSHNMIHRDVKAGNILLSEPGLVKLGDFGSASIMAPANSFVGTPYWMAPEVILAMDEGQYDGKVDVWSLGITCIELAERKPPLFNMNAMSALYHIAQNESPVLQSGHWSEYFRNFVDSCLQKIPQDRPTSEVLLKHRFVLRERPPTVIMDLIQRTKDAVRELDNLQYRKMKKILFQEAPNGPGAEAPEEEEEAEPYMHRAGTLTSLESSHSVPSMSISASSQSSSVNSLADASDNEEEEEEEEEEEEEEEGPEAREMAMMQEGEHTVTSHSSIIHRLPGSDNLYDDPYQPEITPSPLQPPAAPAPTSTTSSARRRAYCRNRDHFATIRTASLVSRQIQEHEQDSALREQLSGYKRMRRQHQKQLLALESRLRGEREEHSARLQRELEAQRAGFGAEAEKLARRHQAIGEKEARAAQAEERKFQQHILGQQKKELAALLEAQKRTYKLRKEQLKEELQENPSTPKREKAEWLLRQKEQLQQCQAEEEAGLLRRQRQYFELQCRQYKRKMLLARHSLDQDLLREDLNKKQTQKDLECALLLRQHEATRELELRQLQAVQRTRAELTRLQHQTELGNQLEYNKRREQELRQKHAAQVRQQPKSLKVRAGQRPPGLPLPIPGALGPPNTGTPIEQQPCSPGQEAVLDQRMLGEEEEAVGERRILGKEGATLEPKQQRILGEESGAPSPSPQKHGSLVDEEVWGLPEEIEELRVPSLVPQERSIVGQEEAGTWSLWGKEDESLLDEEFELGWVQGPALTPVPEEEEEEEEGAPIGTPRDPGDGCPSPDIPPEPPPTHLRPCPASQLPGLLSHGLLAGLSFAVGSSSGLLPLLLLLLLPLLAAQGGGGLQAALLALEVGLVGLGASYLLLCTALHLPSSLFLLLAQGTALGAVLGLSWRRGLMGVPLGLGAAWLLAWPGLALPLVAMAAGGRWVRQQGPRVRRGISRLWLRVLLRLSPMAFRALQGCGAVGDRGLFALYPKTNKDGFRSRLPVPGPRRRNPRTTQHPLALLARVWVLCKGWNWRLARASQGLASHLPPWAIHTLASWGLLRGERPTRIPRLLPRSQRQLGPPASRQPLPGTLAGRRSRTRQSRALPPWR
Excerpt: as §1

[1] = test system: STAT3 and STAT5 tyrosine phosphorylation; assay: Tyrosine phosphorylation of STAT3 and STAT5 by immunoblotting in leukemia cell lines; type: cell-based
Procedure: (§2) SET-2, HEL, MV4;11, and K562 cells were obtained from ATCC and cultured as recommended. UKE-1 cells were purchased from Walter Fiedler (University of Hamburg). Cell lysates were either prepared using CHAPS lysis buffer (10 mM HEPES, pH 7.4, 150 mM NaCl, 1% CHAPS) or cell extraction buffer containing 1% Triton X-100, 0.1% SDS, and 0.5% deoxycholate. All buffers were supplemented with protease and phosphatase inhibitor cocktails prior to use.
(§3) Fig 1 Regulation of Mcl-1 and Bcl-XL by JAK2 ^V617F. […] Tyrosine phoshorylation of STAT3 and STAT5 was determined by immunoblotting. […] Constitutive tyrosine phosphorylation of STAT3 and STAT5 was determined by immunoblotting. […] Data represent means +/- standard deviation for two independent determinations each performed in triplicate. […] (G) Quantification of the data shown in (F). Data are expressed as the ratio of intensity of Mcl-1/β-actin for each time point. […] Data are means of duplicate samples and are representative of two independent experiments.

Mcl-1 = Mcl-1 protein level by immunoblotting, quantitation by LiCor Odyssey Imager; type: cell-based
Procedure: as §2, §3
Supplementary file pone.0114363.s003.xls: S3 Dataset Quantitation of western blot data by LiCor Odyssey Imager. (XLS) Click here for additional data file.

Bcl-XL = Bcl-XL protein level by immunoblotting; type: cell-based; details: 24-hr time course
Procedure: as §2, §3

Abl, sequence (P00519 whole entry): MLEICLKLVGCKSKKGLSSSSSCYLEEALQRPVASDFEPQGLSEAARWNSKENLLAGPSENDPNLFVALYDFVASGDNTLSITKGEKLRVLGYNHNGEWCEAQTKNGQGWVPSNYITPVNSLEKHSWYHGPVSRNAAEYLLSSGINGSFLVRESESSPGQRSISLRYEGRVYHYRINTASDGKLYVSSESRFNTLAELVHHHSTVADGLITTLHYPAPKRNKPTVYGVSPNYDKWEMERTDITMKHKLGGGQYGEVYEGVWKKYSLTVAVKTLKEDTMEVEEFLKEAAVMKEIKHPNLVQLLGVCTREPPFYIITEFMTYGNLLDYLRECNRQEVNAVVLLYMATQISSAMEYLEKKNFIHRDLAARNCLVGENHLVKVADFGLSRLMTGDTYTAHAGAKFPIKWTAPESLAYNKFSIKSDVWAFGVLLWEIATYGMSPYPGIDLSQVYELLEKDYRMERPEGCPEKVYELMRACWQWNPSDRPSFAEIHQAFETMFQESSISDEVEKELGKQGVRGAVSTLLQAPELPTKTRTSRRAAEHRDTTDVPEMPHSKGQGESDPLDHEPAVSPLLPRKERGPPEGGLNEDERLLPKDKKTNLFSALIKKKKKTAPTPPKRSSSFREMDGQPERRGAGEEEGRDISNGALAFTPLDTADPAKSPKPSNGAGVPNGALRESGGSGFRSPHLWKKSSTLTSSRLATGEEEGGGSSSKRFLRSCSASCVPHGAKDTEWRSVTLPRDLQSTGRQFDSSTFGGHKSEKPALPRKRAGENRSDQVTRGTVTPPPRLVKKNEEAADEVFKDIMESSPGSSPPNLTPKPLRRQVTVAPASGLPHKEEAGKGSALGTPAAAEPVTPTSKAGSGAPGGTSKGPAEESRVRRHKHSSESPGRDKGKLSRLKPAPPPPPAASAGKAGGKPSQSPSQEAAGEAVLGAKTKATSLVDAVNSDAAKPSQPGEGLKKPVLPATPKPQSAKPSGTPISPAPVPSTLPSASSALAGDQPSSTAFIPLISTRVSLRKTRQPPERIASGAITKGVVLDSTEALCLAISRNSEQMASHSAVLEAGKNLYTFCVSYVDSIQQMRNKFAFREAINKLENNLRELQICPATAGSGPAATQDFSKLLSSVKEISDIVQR

CC(C)(C)c1nc2c3cc[nH]c(=O)c3c3cc(F)ccc3c2[nH]1 [JAKi-I, JAK inhibitor I]
Ki (Abl): > 2600 nM
Ki (DDR1): > 2590 nM
Ki (MAP3K10): > 3060 nM
Ki (Pim2): 2110 nM
Ki (TAOK2): > 6610 nM
constitutive STAT3/5 phosphorylation ([1]; 1 μM, 1 hr, serum-free, only in JAK2 V617F lines (SET-2, UKE-1, HEL), not K562, MV4;11): inhibited
phosphorylation of both STAT3 and STAT5 ([1]; UKE-1 (JAK2 V617F) cells, 10 min): rapid, dose-dependent inhibition
Mcl-1 protein level (Mcl-1; 24-hr time course): sharply declined
Mcl-1 protein (% control) (Mcl-1; HEL, 1 uM Jaki-I, 2 hr): 62 % control
Mcl-1 protein (% control) (Mcl-1; HEL, 1 uM Jaki-I, 6 hr): 45 % control
Mcl-1 protein (% control) (Mcl-1; HEL, 1 uM Jaki-I, 24 hr): 42 % control
Mcl-1 protein (% control) (Mcl-1; K562, 1 uM Jaki-I, 2 hr): 100 % control
Mcl-1 protein (% control) (Mcl-1; K562, 1 uM Jaki-I, 6 hr): 93 % control
Mcl-1 protein (% control) (Mcl-1; K562, 1 uM Jaki-I, 24 hr): 93 % control
Mcl-1 protein (% control) (Mcl-1; MV4:11, 1 uM Jaki-I, 2 hr): 75 % control
Mcl-1 protein (% control) (Mcl-1; MV4:11, 1 uM Jaki-I, 6 hr): 74 % control
Mcl-1 protein (% control) (Mcl-1; MV4:11, 1 uM Jaki-I, 24 hr): 65 % control
Mcl-1 protein (% control) (Mcl-1; SET-2, 1 uM Jaki-I, 2 hr): 68 % control
Mcl-1 protein (% control) (Mcl-1; SET-2, 1 uM Jaki-I, 6 hr): 50 % control
Mcl-1 protein (% control) (Mcl-1; SET-2, 1 uM Jaki-I, 24 hr): 35 % control
Mcl-1 protein (% control) (Mcl-1; UKE-1, 1 uM Jaki-I, 2 hr): 50 % control
Mcl-1 protein (% control) (Mcl-1; UKE-1, 1 uM Jaki-I, 6 hr): 25 % control
Mcl-1 protein (% control) (Mcl-1; UKE-1, 1 uM Jaki-I, 24 hr): 22 % control
Mcl-1 protein stability (Mcl-1; in the presence of cycloheximide (data not shown)): not altered
Bcl-XL protein level (Bcl-XL): sharply declined
